Experimental data published in patent US8110681B2, “Compounds for the treatment of spinal muscular atrophy and other uses” (The United States of America as represented by the …, priority 2006, dated 2012).
Like-named read-outs stand apart in the source and are kept apart here.

Tested on: SMN2-linked luciferase-reporter gene construct
Experiment: SMN splice reporter assay (SMN2-linked luciferase reporter, Example 10)
Assay type: cell-based
Details: for maximal fold induction: read-out: SMN Splice Reporter Assay (Example 10) Avg MaxFold Increase
Description: Cervical carcinoma cell lines were transformed with a SMN2-linked luciferase-reporter gene construct. The reporter is designed to detect shifts in the alternative splicing of SMN2 sequences. In particular, the reporter is constructed as a fusion of the alternatively spliced sequences of the SMN2 gene and the luciferase gene. Luciferase sequences are in the correct translational reading frame only when the SMN2 sequences are spliced according to the normal SMN1 mechanism (e.g., splicing to include exon 7), which allows for translation of the stable SMN protein. Compounds were tested in the assay by administering the compound to the cell line and detecting an increase in the luciferase activity. The assay is described in greater detail in Zhang et al., Gene Ther., 8, 1532-8 (2001). Compounds were administered as described in Lunn et al, Chem. & Biol, 11, 1489-1493 (2004).
The results are reported as a fold-increase over a baseline reading of transformed cells without any test compound.

[1] = SMN2-linked luciferase reporter, average
[2] = maximum fold increase of reporter signal, average
[3] = SMN2-linked luciferase reporter, average maximum fold increase

COC(=O)C(C)c1ccc(N2Cc3ccccc3C2)cc1 (centres unmarked) [ALB-112192]
EC50 [1]: 5720 nM
maximal fold induction [2]: 1.41

CC(C)c1ccc(N2Cc3ccc(NC(=O)N(C)C)cc3C2=O)cc1 [ALB-118731]
EC50 [1]: 854 nM
maximal fold induction [3]: 1.2

CC(C)c1ccc2c(c1)CN(c1ccc(C(C)C(=O)O)cc1)C2=O (centres unmarked) [ALB-113561]
maximal fold induction [2]: 1.21

CC(C(=O)OC(C)(C)C)c1ccc(N2Cc3cccc(-c4ccccc4)c3C2=O)cc1 (centres unmarked) [ALB-112150]
maximal fold induction [2]: 1.1

CC(C(=O)OC(C)(C)C)c1ccc(N2Cc3c(cccc3-c3ccc(Cl)cc3)C2=O)cc1 (centres unmarked) [ALB-112190]
maximal fold induction [2]: 1.1

CC(C(=O)O)c1ccc(N2Cc3cc(OC4CCCC4)ccc3C2=O)cc1 (centres unmarked) [ALB-113963]
maximal fold induction [2]: 1.14

COCC(C)c1ccc(N2Cc3ccc(CC(C)C)cc3C2=O)cc1 (centres unmarked) [ALB-115976]
EC50 [1]: 179 nM
maximal fold induction [2]: 1.29

CC(C(=O)OC(C)(C)C)c1ccc(N2Cc3ccccc3C2=O)cc1Br (centres unmarked) [ALB-111882]
EC50 [1]: 2830 nM
maximal fold induction [2]: 1.24

CC(C(=O)OC(C)(C)C)c1ccc(N2Cc3cccc(-c4ccc(Cl)cc4)c3C2=O)cc1 (centres unmarked) [ALB-112153]
maximal fold induction [2]: 1.02

CC(C(=O)O)c1ccc(N2Cc3cc(OCC(F)(F)F)ccc3C2=O)cc1 (centres unmarked) [ALB-113964]
maximal fold induction [2]: 1.08

CC(C(=O)O)c1ccc(N2Cc3cc(-c4ccccc4)ccc3C2=O)cc1 (centres unmarked) [ALB-111993]
EC50 [1]: 2950 nM
maximal fold induction [2]: 1.54

CC(C(=O)O)c1ccc(N2Cc3c(N)cccc3C2=O)cc1 (centres unmarked) [ALB-111996a]
maximal fold induction [2]: 1.11

CC(C(=O)OC(C)(C)C)c1ccc(N2Cc3cccc(Cl)c3C2=O)cc1 (centres unmarked) [ALB-111783]
EC50 [1]: 1560 nM
maximal fold induction [2]: 1.13

CC(C)(C(=O)O)c1ccc(N2Cc3ccccc3C2=O)cc1 [ALB-111796]
EC50 [1]: 3520 nM
maximal fold induction [2]: 1.22

CC(C)c1ccc(N2Cc3ccc(N)cc3C2=O)cc1 [ALB-115805]
EC50 [1]: 99 nM
maximal fold induction [2]: 1.42

CC(C(=O)O)c1ccc(N2Cc3ccccc3C2=O)c(Br)c1 (centres unmarked) [ALB-112004]
EC50 [1]: 1250 nM
maximal fold induction [2]: 1.08

Cc1ccc(N2Cc3ccccc3C2=O)cc1 [ALB-114898]
EC50 [1]: 302 nM
maximal fold induction [2]: 1.36

CC(C(=O)O)c1ccc(N2Cc3cc(-c4cccs4)ccc3C2=O)cc1 (centres unmarked) [ALB-112063]
EC50 [1]: 909 nM
maximal fold induction [2]: 1.2

CC(C(=O)O)c1ccc(N2Cc3c(cccc3-c3cccs3)C2=O)cc1 (centres unmarked) [ALB-112225]
maximal fold induction [2]: 1.07

CC(C(=O)O)c1ccc(N2Cc3ccc(N)cc3C2=O)cc1 (centres unmarked) [ALB-111883a]
EC50 [1]: 1260 nM
maximal fold induction [2]: 1.17

C/C=C\c1ccc2c(c1)C(=O)N(c1ccc(C(C)C(=O)OC(C)(C)C)cc1)C2 (centres unmarked) [ALB-113000]
EC50 [1]: 3740 nM
maximal fold induction [2]: 1.31

CC(C(=O)O)c1ccc(N2Cc3cc(-c4ccc(Cl)cc4)ccc3C2=O)cc1 (centres unmarked) [ALB-111890]
EC50 [1]: 7740 nM
maximal fold induction [2]: 1.16

Cc1ccc(-c2ccc3c(c2)CN(c2ccc(C(C)C(=O)O)cc2)C3=O)cc1 (centres unmarked) [ALB-111891]
EC50 [1]: 8880 nM
maximal fold induction [2]: 1.31

CC(C(=O)OC(C)(C)C)c1ccc(N2Cc3cccc(C#N)c3C2=O)cc1 (centres unmarked) [ALB-112472]
maximal fold induction [2]: 1.12

CC(C(=O)OC(C)(C)C)c1ccc(N2Cc3ccccc3C2=O)c(-c2ccccc2)c1 (centres unmarked) [ALB-112163]
maximal fold induction [2]: 1.03

CC(C(=O)O)c1ccc(N2Cc3ccc(I)cc3C2=O)cc1 (centres unmarked) [ALB-115216]
EC50 [1]: 75 nM
maximal fold induction [2]: 1.87

CC(C(=O)OC(C)(C)C)c1ccc(N2Cc3cc(-c4cccs4)ccc3C2=O)cc1 (centres unmarked) [ALB-111992]
maximal fold induction [2]: 1.01

CC(C(=O)O)c1ccc(N2Cc3cccc(C#N)c3C2=O)cc1 (centres unmarked) [ALB-112518]
maximal fold induction [2]: 1.12

CC(C)c1ccc(N2Cc3ccc(-c4ccccc4)cc3C2=O)cc1 [ALB-118037]
EC50 [1]: 937 nM
maximal fold induction [2]: 1.34

Cc1ccc(-c2cc(N3Cc4ccccc4C3=O)ccc2C(C)C(=O)O)cc1 (centres unmarked) [ALB-112003]
EC50 [1]: 2060 nM
maximal fold induction [2]: 1.09

CC(C)C(=O)Nc1ccc2c(c1)C(=O)N(c1ccc(C(C)C(=O)OC(C)(C)C)cc1)C2 (centres unmarked) [ALB-111989]
maximal fold induction [2]: 1.06

CC(C(=O)O)c1ccc(N2Cc3ccccc3C2=O)cc1-c1cccs1 (centres unmarked) [ALB-112084]
maximal fold induction [2]: 1.11

CCOc1cccc2c1C(=O)N(c1ccc(C(C)C(=O)O)cc1)C2 (centres unmarked) [ALB-113391]
EC50 [1]: 15300 nM
maximal fold induction [2]: 1.46

CC(C(=O)O)c1ccc(N2Cc3cccc(OC4CCCC4)c3C2=O)cc1 (centres unmarked) [ALB-113566]
EC50 [1]: 5150 nM
maximal fold induction [2]: 1.96

CC(C(=O)OC(C)(C)C)c1ccc(N2Cc3ccc(-c4cccnc4)cc3C2=O)cc1 (centres unmarked) [ALB-112473]
EC50 [1]: 2 nM
maximal fold induction [2]: 1.03

CC(C(=O)O)c1ccc(N2Cc3ccc(CN(C)C)cc3C2=O)cc1 (centres unmarked) [ALB-114608]
maximal fold induction [2]: 1.23

CC(C(=O)N1CCOCC1)c1ccc(N2Cc3ccccc3C2=O)cc1 (centres unmarked) [ALB-112077]
maximal fold induction [2]: 1.09

Cc1ccc(-c2cccc3c2C(=O)N(c2ccc(C(C)C(=O)OC(C)(C)C)cc2)C3)cc1 (centres unmarked) [ALB-112151]
maximal fold induction [2]: 1.11

CC(C(=O)O)c1ccc(N2Cc3ccc(C4CCCC4)cc3C2=O)cc1 (centres unmarked) [ALB-114607]
EC50 [1]: 35 nM
maximal fold induction [2]: 1.51

CCCC1c2ccccc2C(=O)N1c1ccc(C(C)C(=O)O)cc1 (centres unmarked) [ALB-111795]
EC50 [1]: 25800 nM
maximal fold induction [2]: 1.41

COc1cccc2c1CN(c1ccc(C(C)C(=O)O)cc1)C2=O (centres unmarked) [ALB-111895]
maximal fold induction [2]: 1.15

CC(C)c1ccc(N2Cc3cccc(Br)c3C2=O)cc1 [ALB-115801]
EC50 [1]: 144 nM
maximal fold induction [2]: 1.45

C=Cc1ccc2c(c1)CN(c1ccc(C(C)C(=O)O)cc1)C2=O (centres unmarked) [ALB-113390]
EC50 [1]: 10400 nM
maximal fold induction [2]: 1.29

CC(C(=O)O)c1ccc(N2Cc3ccc(OC(F)F)cc3C2=O)cc1 (centres unmarked) [ALB-119335]
EC50 [1]: 51 nM
maximal fold induction [3]: 1.54

CC(C(=O)O)c1ccc(N2Cc3cc(C#N)ccc3C2=O)cc1 (centres unmarked) [ALB-112477]
EC50 [1]: 6980 nM
maximal fold induction [2]: 1.18

CCOCc1ccc2c(c1)C(=O)N(c1ccc(C(C)CO)cc1)C2 (centres unmarked) [ALB-114743]
EC50 [1]: 448 nM
maximal fold induction [2]: 1.37

C/C=C/c1ccc2c(c1)C(=O)N(c1ccc(C(C)C)cc1)C2 [ALB-115319]
maximal fold induction [2]: 1.24

COc1ccc2c(c1OC)C(=O)N(c1ccc(C(C)C)cc1)C2 [ALB-118036]
EC50 [1]: 2670 nM
maximal fold induction [2]: 1.29

CC(C)c1ccc(N2Cc3c(Br)cccc3C2=O)cc1 [ALB-115811]
maximal fold induction [2]: 1.16

CC(C(=O)OC(C)(C)C)c1ccc(N2Cc3cccc(N)c3C2=O)cc1 (centres unmarked) [ALB-112061]
EC50 [1]: 3740 nM
maximal fold induction [2]: 1.27

CC(C(=O)NS(C)(=O)=O)c1ccc(N2Cc3ccccc3C2=O)cc1 (centres unmarked) [ALB-111744]
maximal fold induction [2]: 1.14

CCc1ccc2c(c1)CN(c1ccc(C(C)C(=O)O)cc1)C2=O (centres unmarked) [ALB-113490]
EC50 [1]: 218 nM
maximal fold induction [2]: 1.48

CC(C(=O)O)c1ccc(N2Cc3ccc(NC(=O)c4ccc(Cl)cc4)cc3C2=O)cc1 (centres unmarked) [ALB-111983]
maximal fold induction [2]: 1.06

CC(C(=O)O)c1ccc(N2Cc3ccc(CCC(F)(F)F)cc3C2=O)cc1 (centres unmarked) [ALB-115588]
EC50 [1]: 356 nM
maximal fold induction [2]: 1.7

Cc1cccc2c1CN(c1ccc(C(C)C)cc1)C2=O [ALB-115947]
EC50 [1]: 114 nM
maximal fold induction [2]: 1.39

CC(C(=O)OC(C)(C)C)c1ccc(N2Cc3ccccc3C2=O)cc1-c1cccnc1 (centres unmarked) [ALB-112173]
maximal fold induction [2]: 1

C=Cc1cccc2c1C(=O)N(c1ccc(C(C)C(=O)O)cc1)C2 (centres unmarked) [ALB-113393]
EC50 [1]: 209 nM
maximal fold induction [2]: 1.21

CCCCCOc1ccc2c(c1)CN(c1ccc(C(C)C(=O)O)cc1)C2=O (centres unmarked) [ALB-113759]
EC50 [1]: 510 nM
maximal fold induction [2]: 1.22

CC(C(=O)O)c1ccc(N2Cc3ccc(-c4ccc(Cl)cc4)cc3C2=O)cc1 (centres unmarked) [ALB-112449]
maximal fold induction [2]: 1.16

Cc1ccc(-c2cc(N3Cc4ccccc4C3=O)ccc2C(C)C(=O)OC(C)(C)C)cc1 (centres unmarked) [ALB-112000]
maximal fold induction [2]: 1.06

CCCc1ccc(N2Cc3ccc(C)cc3C2=O)cc1 [ALB-116071]
EC50 [1]: 16 nM
maximal fold induction [2]: 1.35

CC(C(=O)OC(C)(C)C)c1ccc(N2Cc3c(cccc3-c3ccccc3)C2=O)cc1 (centres unmarked) [ALB-112187]
maximal fold induction [2]: 1.07

C[C@@H](C(=O)O)c1ccc(N2Cc3ccccc3C2=O)cc1 [ALB-112941]
EC50 [1]: 280 nM
maximal fold induction [2]: 1.48

COCC(C)c1ccc(N2Cc3ccc(C4CCCC4)cc3C2=O)cc1 (centres unmarked) [ALB-114845]
maximal fold induction [2]: 1.15

Cc1ccc(-c2ccc3c(c2)CN(c2ccc(C(C)C(=O)OC(C)(C)C)cc2)C3=O)cc1 (centres unmarked) [ALB-111887]
maximal fold induction [2]: 1.04

Cc1ccc2c(c1)C(=O)N(c1ccc(C(C)C(=O)O)cc1)C2 (centres unmarked) [ALB-112954]
EC50 [1]: 330 nM
maximal fold induction [2]: 1.62

COc1ccc2c(c1)CN(c1ccc(C(C)C(=O)O)cc1)C2=O (centres unmarked) [ALB-111959]
EC50 [1]: 451 nM
maximal fold induction [2]: 1.26

CC(C(=O)O)c1ccc(N2Cc3cc(-c4cncnc4)ccc3C2=O)cc1 (centres unmarked) [ALB-111994]
EC50 [1]: 4180 nM
maximal fold induction [2]: 1.38

O=C1c2cc3c(cc2CN1c1ccc(C2CCCCC2)cc1)OCCO3 [ALB-116417]
maximal fold induction [3]: 1.11

Cc1ccc(N2Cc3cc4c(cc3C2=O)OCCO4)cc1 [ALB-116363]
EC50 [1]: 24 nM
maximal fold induction [3]: 1.54

CC(C(=O)O)c1ccc(N2Cc3cc4c(cc3C2=O)OCO4)cc1 (centres unmarked) [ALB-114782]
EC50 [1]: 81 nM
maximal fold induction [2]: 1.65
